The values that follow are results of earlier work, collected in US20220202008A1, “BAIT FOR A PEST” (FALCON LIFE SCIENCES LTD, priority 2020, published 2022).

The series has as its system mouse. The note with it: acute dose.

The structures appear in SMILES notation.

For `COC(C)(C)CCCC(C)CC=CC(C)=CC(=O)OC(C)C` (stereo not shown) [methoprene, isopropyl 11-methoxy-3,7,11-trimethyldodeca-2,4-dienoate], the LD50 result is reported as “around 5000 ppm”.
